The values that follow come from patent EP2737897A2, “Anti-inflammatory botanical products for the treatment of metabolic syndrome and diabetes” (Metaproteomics, LLC, priority 2005, dated 2007).

SMILES strings stand for the structures. Converted amounts (≈) assume the structure as drawn. Read-outs that look alike come from different tables or passages of the source. Marks after values point to notes of the source that are not given here.

One series has as its system PGE2 synthesis. The series can be described thus: cells. The format is cell-based, murine. As to conditions: for IC50: Mus musculus.
The subject of series [1] is IL-6 secretion in LPS/3T3-L1 adipocytes. Nature of the series: IL-6 secretion in the lipopolysaccharide/3T3-L1 adipocyte model (Example 26). The format is cell-based, murine. As to conditions: 100 ng LPS/ml.
Series [2] relates to adiponectin secretion in LPS/3T3-L1 adipocytes. The series can be described thus: Adiponectin secretion in the lipopolysaccharide/3T3-L1 adipocyte model (Example 26). As to conditions: 100 ng LPS/ml; for % Stimulation (maximum, adiponectin secretion): NS = not significantly different from the LPS control.
A further series relates to NF-kBp65. Nature of the series: NF-kBp65 nuclear translocation in TNFα-treated D40 3T3-L1 adipocytes, TransAM ELISA (Example 32). The format is cell-based, murine. As to conditions: 2.5 and 5.0 µg/ml; three or 24 hours following TNFα. The procedure:
ELISA - 3T3-L1 adipocytes were maintained in growth media for 40 days following differentiation. Nuclear NF-kBp65 was determined using the TransAM™ NF-kB kit from Active Motif (Carlsbad, CA) was used with no modifications. […] Protein assay - Nuclear protein was quantified using the Active Motif Fluorescent Protein Quantificantion Kit. Statistical Analysis - Comparisons were performed using a one-tailed Student's t-test. The probability of a type I error was set at the nominal five percent level.
(In general: An ELISA detects its analyte on a solid surface through an enzyme-linked reagent.)

In the next series the test system is 3T3-L1 adipocytes. The series can be described thus: Lipogenesis in 3T3-L1 adipocytes, Oil Red O or BODIPY staining. The format is cell-based, murine.
Series [3] deals with interleukin-6 secretion from TNFα-treated 3T3-L1 adipocytes. The series can be described thus: Interleukin-6 secretion from TNFα-treated 3T3-L1 adipocytes. The format is cell-based, murine. As to conditions: Mus musculus, 3T3-L1, read-out: IL-6 Index.
In a further series the test system is COX-2 protein expression. Nature of the series: Western blot of COX-2 protein expression in LPS-stimulated RAW 264.7 cells (Example 8). As to conditions: 20 hours stimulation with LPS; compared to DMSO solvent control. The format is cell-based, murine. Background: Immunoblotting shows a protein as a band on a membrane.
The subject of another series is NF-κB. The series can be described thus: NF-κB DNA binding of nuclear extracts of LPS-stimulated RAW 264.7 cells, TransAM NF-κB kit (Example 9). As to conditions: MgRIAA 55 and 14 µg/ml, parthenolide 80 µM, LY294002 25 µM; LPS 1 µg/ml 4 h. The format is cell-based, murine.
Series [4] has as its system IL-6 secretion from insulin-resistant 3T3-L1 adipocytes. Nature of the series: IL-6 secretion from insulin-resistant 3T3-L1 adipocytes. The format is cell-based, murine. As to conditions: Mus musculus.
In series [5] the test system is adiponectin secretion from insulin-resistant 3T3-L1 adipocytes.
Series [6] shares this test system. The series can be described thus: cells. As to conditions: Mus musculus.
The subject of series [7] is resistin secretion from insulin-resistant 3T3-L1 adipocytes. The series can be described thus: cells. As to conditions: Mus musculus, 3T3-L1, read-out: Resistin Index.
Method: Resistin Assay - The amount of resistin secreted into the medium was quantified using the Quantikine® Mouse Resistin Immunoassay kit with no modifications (R&D Systems, Minneapolis, MN). […] All supernatant media samples were diluted 1:20 with dilution media supplied by the manufacturer before assay.
Statistical Calculations and Interpretation - All assays were preformed in duplicate. […] Differences among the doses were determined using the Student's t-test without correction for multiple comparisons; the nominal five percent probability of a type I error (one-tail) was selected.
The subject of series [8] is adiponectin secretion from TNFα-treated 3T3-L1 adipocytes. Nature of the series: Adiponectin secretion from TNFα-treated 3T3-L1 adipocytes. As to conditions: 10 ng TNFα/ml (Table 9).
Setting [9] is: RAW264.7, read-out: Relative IC50.
[10] abbreviates: 3T3-L1, read-out: Adiponectin Index.

Regarding `C[C@@H]1O[C@@H](OC[C@H]2O[C@@H](Oc3c(-c4ccc(O)c(O)c4)oc4cc(O)cc(O)c4c3=O)[C@H](O)[C@@H](O)[C@@H]2O)[C@H](O)[C@H](O)[C@H]1O` [Rutin], the IC50 in the series with PGE2 synthesis (RAW264.7) and in the series with PGE2 synthesis (setting [9]) was > 12 µg/mL throughout.

Regarding `O=c1c(O)c(-c2ccc(O)cc2)oc2cc(O)cc(O)c12` [Keampferol], the IC50 (as a rule, the concentration at which inhibition is half-maximal) in the series on PGE2 synthesis (RAW264.7) is 4.3 µg/mL (≈ 15 µM); in the series with PGE2 synthesis (setting [9]), 2 to 6 µg/mL (≈ 6.99 to 21 µM).

Take `c1cc2c(cc1[C@H]1OC[C@H]3[C@@H]1CO[C@@H]3c1ccc3c(c1)OCO3)OCO2` [Sesamin]: the IC50 with PGE2 synthesis (RAW264.7) and in the series with PGE2 synthesis (setting [9]) was > 12 µg/mL throughout.

For the molecule `O=C(O)c1ccccc1O` [Salicylic acid], the “Concentration (dose providing the maximum inhibition of IL-6 secretion)” value in series [1] worked out at 50.0 µg/mL. The “IL-6 Index (maximum inhibition)” value in [1] ([IL-6Test - IL-6Control]/[IL-6LPS - IL-6Control]) is 0.52*. In series [2], the “Concentration (of maximum stimulation of adiponectin secretion)” value was 173 µg/mL and the “% Stimulation (maximum, adiponectin secretion)” value (“% Stimulation” below) is “failed to induce adiponectin secretion”.

In the case of `Oc1ccc(C=Cc2cc(O)cc(O)c2)cc1` [Resveratrol], the IC50 with PGE2 synthesis (RAW264.7) is 5.8 µg/mL (≈ 25.4 µM); in the series with PGE2 synthesis (setting [9]), 2 to 6 µg/mL (≈ 8.76 to 26.3 µM).

With `CC(=O)Oc1ccccc1C(=O)O` [Aspirin], the “Concentration (dose providing the maximum inhibition of IL-6 secretion)” value in [1] was 25.0 µg/mL. In series [2], the “Concentration (of maximum stimulation of adiponectin secretion)” value came to 113 µg/mL and the “% Stimulation” value is “failed to induce adiponectin secretion”.

On to `O=c1c(-c2ccc(O)cc2)coc2cc(O)cc(O)c12` [Genistein], for which, in the series with PGE2 synthesis, the “Relative Potency” value is listed as “high”.

In the case of `CCc1ccc(CCOc2ccc(CC3SC(=O)NC3=O)cc2)nc1` (stereo not drawn) [Pioglitazone], the “% Inhibition (maximum, IL-6 secretion)” value in [1] was 63* %. The “amount of nuclear NF-kBp65” value in the series with NF-kBp65 was “did not inhibit”. The “% Stimulation” value in series [2] was 12%.

`O=c1c(O)c(-c2ccc(O)c(O)c2)oc2cc(O)cc(O)c12` [Quercetin]: in the series with PGE2 synthesis, the “Relative Potency” value is listed as “high”.

For `COc1ccc2cc3[n+](cc2c1OC)CCc1cc2c(cc1-3)OCO2` [Berberine], the values for the IC50 with PGE2 synthesis (RAW264.7) and in the series on PGE2 synthesis (setting [9]) were 3.3 µg/mL and 2 to 6 µg/mL, respectively.

Take `CN(C)C(=N)N=C(N)N` [Metformin]: in the series with 3T3-L1 adipocytes (Mus musculus, 3T3-L1, read-out: lipogenic index (observed)), the activity at 50 µg/mL worked out at 79%. Moreover, in [3], the activity at 1 µg/mL stood at 91%, the activity at 5 µg/mL came to 96%, the activity at 10 µg/mL worked out at 78% and the activity at 50 µg/mL stood at 78%.

With `O=c1c(O)c(-c2ccccc2)oc2cc(O)cc(O)c12` [Galangin], the “Relative Potency” value with PGE2 synthesis is reported as “high”.

For the molecule `C=C1C(=O)O[C@@H]2[C@H]3O[C@]3(C)CC/C=C(\C)CC[C@@H]12` [Parthenolide], in the series on COX-2 protein expression, the “reduction in COX-2 protein expression” value is on record as 22.5%. Also, in the series on NF-κB, the “NF-κB DNA binding” value is on record as “significant reduction”.

For `CC(C)CCC1=C(O)C(CCC(C)C)(CCC(C)C)C(=O)C(C(=O)C(C)C)=C1O` [Hexahydrocolupulone (HHCL), Hexahydrocolupulone], the “adipogenic response (lipid content relative to solvent control)” value in the series with 3T3-L1 adipocytes (hops compounds 10, 5, 4 or 2 µg/ml, spent hops 50 µg/ml, positive controls indomethacin 5.0 and troglitazone […]) is recorded as “failed to elicit a lipogenic response greater than the solvent controls”. In [4] (3T3-L1, 6.25 µg/ml, indexed to insulin only control, read-out: IL-6 Index), the activity at 6.25 µg/mL came out at 100%. In addition, the activity at 25 µg/mL in [4] (3T3-L1, 25.0 µg/ml, indexed to insulin only control, read-out: IL-6 Index) turned out to be 119%. The activity at 50 µg/mL in series [4] (3T3-L1, 50.0 µg/ml, indexed to insulin only control, read-out: IL-6 Index) amounted to 277%. For the same molecule, the “Adiponectin Index” value in [5] (3t3-l1 adipocytes) was 1.71#. Besides, in series [6] (setting [10]), the fold induction at 6.25 µg/mL is 1.05, the fold induction at 25 µg/mL turned out to be 1.62 and the fold induction at 50 µg/mL is 1.65. In addition, in [6] (3T3-L1, read-out: Maximum Adiponectin Secretion), the maximal fold induction was 1.83. Also, the EC50 in series [6] (3T3-L1, read-out: Test Material at Half Maximal Secretion) is 3.2 µg/mL.

For the molecule `COc1ccc2c(c1)c(CC(=O)O)c(C)n2C(=O)c1ccc(Cl)cc1` [Indomethacin], the activation at 5 µg/mL with 3T3-L1 adipocytes (Mus musculus, 3T3-L1, read-out: increase of nonpolar lipid incorporation relative to the solvent controls) came out at 33%. In addition, the “% Inhibition (maximum, IL-6 secretion)” value in series [1] was 53* %. For the same molecule, in series [2], the “% Stimulation” value stood at 9%.

With `Cc1c(C)c2c(c(C)c1O)CCC(C)(COc1ccc(CC3SC(=O)NC3=O)cc1)O2` (stereo not drawn) [Troglitazone], the activity at 1 µg/mL in series [3] is 66%. Further, in series [4] (3T3-L1, read-out: IL-6 Index), the activity at 0.625 µg/mL was found to be 100% and the activity at 5 µg/mL was found to be 131%. Besides, in [1], the “% Inhibition (maximum, IL-6 secretion)” value is reported as 69* % and the “Concentration (dose providing the maximum inhibition of IL-6 secretion)” value was determined as 10.0 µg/mL. Besides, the “concentration at which maximal adiponectin secretion was observed” value in series [5] (of the four doses tested) stood at 2.5 µg/mL. In [6] (3T3-L1, read-out: Test Material at Half Maximal Secretion, estimated from the slope of Hofstee plots), the EC50 is 0.085 µg/mL (≈ 0.193 µM). In addition, in [7], the activity at 0.625 µg/mL is 89% and the activity at 5 µg/mL was determined as 143%. In addition, in series [8], the “Concentration (of maximum adiponectin secretion)” value amounted to 0.625 µg/mL. Besides, in [2], the “Concentration (of maximum stimulation of adiponectin secretion)” value was found to be 0.625 µg/mL and the “% Stimulation” value was determined as 15%.

Take `O=c1c(O)c(-c2cc(O)c(O)c(O)c2)oc2cc(O)cc(O)c12` [Myricetin]: the IC50 with PGE2 synthesis (RAW264.7) and in the series with PGE2 synthesis (setting [9]) was > 12 µg/mL each time.

With `CC(C)Cc1ccc(C(C)C(=O)O)cc1` (stereo not drawn) [Ibuprofen], in series [1], the “% Inhibition (maximum, IL-6 secretion)” value is recorded as 54* % and the “Concentration (dose providing the maximum inhibition of IL-6 secretion)” value is 0.625 µg/mL. For the same molecule, in series [2], the “Concentration (of maximum stimulation of adiponectin secretion)” value came to 0.625 µg/mL and the “% Stimulation” value was found to be 22%.

As for `Oc1cc(O)c2c(c1)OC(c1ccc(O)c(O)c1)C(O)C2` (stereo not drawn) [Catechin], the IC50 with PGE2 synthesis (RAW264.7) and in the series on PGE2 synthesis (setting [9]) was > 12 µg/mL throughout.
